Experimental data: patent publication US9783556B2, “Kinase inhibitors” (RESPIVERT LIMITED, priority 2012, dated 2017)
pIC50: −log10 of the molar value.

Columns and labels:
[1] = tested on: PBMCs; test: LPS-induced TNFα/IL-8 release in PBMC cells; format: cell-based; conditions: Homo sapiens, LPS-stimulated PBMCs, IL-8, read-out: IC50 Values for Inhibition of Cytokine Release PBMCs IL-8
Experimental: Peripheral blood mononuclear cells (PBMCs) from healthy subjects are separated from whole blood using a density gradient (Lymphoprep, Axis-Shield Healthcare). The PBMCs are seeded in 96 well plates and treated with compounds at the desired concentration for 2 hours before addition of 1 ng/mL LPS (Escherichia Coli 0111:B4 from Sigma Aldrich) for 24 hours under normal tissue culture conditions (37° C., 5% CO2). The supernatant is harvested for determination of IL-8 and TNFα concentrations by sandwich ELISA (Duo-set, R&D systems) and read on the fluorescence microplate reader (Varioskan® Flash, ThermoFisher Scientific). The concentration at 50% inhibition (IC50) of IL-8 and TNFα production is calculated from the dose response curve.

[2] = target: GSK 3α (Homo sapiens (Human), UniProt P49840); test: GSK 3α enzyme inhibition (Z-LYTE FRET); format: biochemical; conditions: read-out: IC50 Values for Enzyme Inhibition GSK3α
Experimental: (§1) The enzyme inhibitory activities of compounds disclosed herein are determined by FRET using synthetic peptides labelled with both donor and acceptor fluorophores (Z-LYTE, Invitrogen Ltd., Paisley, UK).
The following two assay variants can be used for determination of GSK 3α inhibition.
The inhibitory activities of compounds of the invention against the GSK 3α enzyme isoform (Invitrogen), are evaluated by determining the level of activation/phosphorylation of the target peptide. The GSK3-α protein (500 ng/mL, 2.5 μL) is mixed with the test compound (2.5 μL at either 4 μg/mL, 0.4 μg/mL, 0.04 μg/mL, or 0.004 μg/mL) for 2 hr at RT. The FRET peptide (8 μM, 2.5 μL), which is a phosphorylation target for GSK3α, and ATP (40 μM, 2.5 μL) are then added to the enzyme/compound mixture and the resulting mixture incubated for 1 hr. Development reagent (protease, 5 μL) is added for 1 hr prior to detection in a fluorescence microplate reader (Varioskan® Flash, ThermoFisher Scientific).
(§2) In all cases, the site-specific protease cleaves non-phosphorylated peptide only and eliminates the FRET signal. Phosphorylation levels of each reaction are calculated using the ratio of coumarin emission (donor) over fluorescein emission (acceptor), for which high ratios indicate high phosphorylation and low ratios indicate low phosphorylation levels. The percentage inhibition of each reaction is calculated relative to non-inhibited control and the 50% inhibitory concentration (IC50 value) is then calculated from the concentration-response curve.
This method follows the same steps as Method 1 above, but utilises a shorter period of mixing of the test compound (105 minutes instead of 2 hours) with the GSK3-α protein.

[3] = target: c-Src (Homo sapiens (Human), UniProt P12931); test: c-Src enzyme inhibition (Z-LYTE FRET); format: biochemical
Experimental: as §1
(§3) The inhibitory activities of compounds of the invention against c-Src and Syk enzymes (Invitrogen), are evaluated in a similar fashion to that described hereinabove. The relevant enzyme (3000 ng/mL or 2000 ng/mL respectively, 2.5 μL) is incubated with the test compound (either 4 μg/mL, 0.4 μg/mL, 0.04 μg/mL, or 0.004 μg/mL, 2.5 μL each) for 2 hr at RT. The FRET peptides (8 μM, 2.5 μL), and appropriate ATP solutions (2.5 μL, 800 μM for c-Src, and 60 μM ATP for Syk) are then added to the enzymes/compound mixtures and incubated for 1 hr. Development reagent (protease, 5 μL) is added for 1 hr prior to detection in a fluorescence microplate reader (Varioskan® Flash, ThermoFisher Scientific).
as §2

[4] = target: Syk (Homo sapiens (Human), UniProt P43405); test: Syk enzyme inhibition (Z-LYTE FRET); format: biochemical
Experimental: as §1, §3, §2

[5] = target: p38 MAPKα isoform (MAPK14) (Homo sapiens (Human), UniProt Q16539); test: p38 MAPKα enzyme inhibition (Z-LYTE FRET); format: biochemical
Experimental: as §1
The following two assay variants can be used for determination of p38 MAPKα inhibition.
The inhibitory activities of test compounds against the p38 MAPKα isoform (MAPK14: Invitrogen), are evaluated indirectly by determining the level of activation/phosphorylation of the down-stream molecule, MAPKAP-K2. The p38 MAPKα protein (80 ng/mL, 2.5 μL) is mixed with the test compound (2.5 μL of either 4 μg/mL, 0.4 μg/mL, 0.04 μg/mL or 0.004 μg/mL) for 2 hr at RT. […] The mixture is incubated for 1 hr at RT. Development reagent (protease, 5 μL) is added for 1 hr prior to detection in a fluorescence microplate reader (Varioskan® Flash, ThermoFisher Scientific).
This method follows the same steps as Method 1 above, but utilises a higher concentration of the p38 MAPKα protein (2.5 μL of 200 ng/mL protein instead of 2.5 μL of 80 ng/mL protein) for mixing with the test compound.
as §2

[6] = tested on: PBMCs; test: IL-2 and IFN gamma release in CD3/CD28 stimulated PBMC cells; format: cell-based; conditions: Homo sapiens, IL-2, read-out: IC50 Values for Inhibition of Cytokine Release PBMCs IL-2
Experimental: PBMCs from healthy subjects are separated from whole blood using a density gradient (Lymphoprep, Axis-Shield Healthcare). Cells are added to a 96 well plate pre-coated with a mixture of CD3/CD38 monoclonal antibodies (0.3 μg/mL eBioscience and 3 μg/mL BD Pharmingen respectively). Compound at the desired concentration is then added to the wells and the plate left for 3 days under normal tissue culture conditions. Supernatants are harvested and IL-2 and IFN gamma release determined by Sandwich ELISA (Duo-set, R&D System). The IC50 is determined from the dose response curve.

[7] = tested on: HT29 cells; test: IL-1β-induced IL-8 release in HT29 cells; format: cell-based; conditions: Homo sapiens, HT-29, IL-1β-stimulated HT29 cells, read-out: IC50 Values for Inhibition of Cytokine Release HT29 cells IL-8
Experimental: HT29 cells, a human colon adenocarcinoma cell line, are plated in a 96 well plate (24 hrs) and pre-treated with compounds at the desired concentration for 2 hours before addition of 5 ng/mL of IL-1β (Abcam) for 24 hours. Supernatants are harvested for IL-8 quantification by Sandwich ELISA (Duo-set, R&D System). The IC50 is determined from the dose response curve.

p38 MAPKα isoform (MAPK14), sequence (Q16539 whole entry, canonical isoform): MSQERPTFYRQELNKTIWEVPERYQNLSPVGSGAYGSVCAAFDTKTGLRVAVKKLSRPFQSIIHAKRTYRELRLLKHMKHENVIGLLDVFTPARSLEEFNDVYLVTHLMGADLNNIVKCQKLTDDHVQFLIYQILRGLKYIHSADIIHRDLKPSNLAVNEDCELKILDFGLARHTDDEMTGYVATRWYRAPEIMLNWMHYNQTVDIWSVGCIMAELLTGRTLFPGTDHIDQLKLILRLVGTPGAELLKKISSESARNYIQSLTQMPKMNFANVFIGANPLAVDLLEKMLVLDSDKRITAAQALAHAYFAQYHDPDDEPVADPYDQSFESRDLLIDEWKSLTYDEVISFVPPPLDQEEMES
c-Src, sequence (P12931 whole entry, looked up): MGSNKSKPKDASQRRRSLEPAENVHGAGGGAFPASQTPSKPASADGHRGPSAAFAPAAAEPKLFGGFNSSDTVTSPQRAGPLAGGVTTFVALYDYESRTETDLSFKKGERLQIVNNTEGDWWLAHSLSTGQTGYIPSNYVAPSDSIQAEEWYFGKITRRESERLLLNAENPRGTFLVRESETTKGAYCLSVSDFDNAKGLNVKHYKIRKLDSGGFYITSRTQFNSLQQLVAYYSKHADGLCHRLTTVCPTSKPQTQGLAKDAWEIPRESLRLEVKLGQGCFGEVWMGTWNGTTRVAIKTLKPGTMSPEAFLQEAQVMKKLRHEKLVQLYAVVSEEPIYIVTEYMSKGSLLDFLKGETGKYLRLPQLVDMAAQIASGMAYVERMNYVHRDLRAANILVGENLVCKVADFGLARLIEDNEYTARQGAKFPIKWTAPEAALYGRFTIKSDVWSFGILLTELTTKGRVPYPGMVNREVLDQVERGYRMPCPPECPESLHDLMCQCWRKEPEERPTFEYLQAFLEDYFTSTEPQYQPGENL
GSK 3α, sequence (P49840 whole entry): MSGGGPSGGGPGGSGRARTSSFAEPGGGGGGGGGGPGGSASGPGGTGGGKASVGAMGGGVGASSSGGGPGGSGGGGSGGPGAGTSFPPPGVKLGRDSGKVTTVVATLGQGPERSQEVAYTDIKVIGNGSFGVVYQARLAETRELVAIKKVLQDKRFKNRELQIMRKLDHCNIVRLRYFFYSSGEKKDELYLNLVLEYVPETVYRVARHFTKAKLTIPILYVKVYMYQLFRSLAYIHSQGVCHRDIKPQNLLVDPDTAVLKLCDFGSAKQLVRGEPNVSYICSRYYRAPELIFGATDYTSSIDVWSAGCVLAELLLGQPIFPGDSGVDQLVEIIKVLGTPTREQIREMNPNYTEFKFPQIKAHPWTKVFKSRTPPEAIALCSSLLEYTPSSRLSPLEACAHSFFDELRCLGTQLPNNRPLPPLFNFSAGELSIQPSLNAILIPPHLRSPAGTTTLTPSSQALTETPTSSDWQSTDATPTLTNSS

## CC[Si](CC)(CC)c1cc(NC(=O)Nc2ccc(Oc3ccnc(Nc4ccccc4)n3)c3ccccc23)n(-c2ccc(C)cc2)n1 [Example 4, 1-(4-((2-(phenylamino)pyrimidin-4-yl)oxy)naphthalen-1-yl)-3-(1-(p-tolyl)-3-(triethylsilyl)-1H-pyrazol-5-yl)urea]
[1]
  pIC50: 7.02
[2]
  pIC50: < 5.00

## Cc1ccc(-n2nc([Si](C)(C)C(C)(C)C)cc2NC(=O)Nc2ccc(Oc3ccnc(Nc4ccccc4)n3)c3ccccc23)cc1 [Example 5, 1-(3-(tert-Butyldimethylsilyl)-1-(p-tolyl)-1H-pyrazol-5-yl)-3-(4-((2-(phenylamino)pyrimidin-4-yl)oxy)naphthalen-1-yl)urea]
[1]
  pIC50: 6.95
[2]
  pIC50: 5.30

## Cc1ccc(-n2nc([Si](C)(C)C)cc2NC(=O)Nc2ccc(Oc3ccnc(Nc4ccc5onc(N)c5c4)n3)c3ccccc23)cc1 [Example 8, 1-(4-((2-((3-Aminobenzo[d]isoxazol-5-yl)amino)pyrimidin-4-yl)oxy)naphthalen-1-yl)-3-(1-(p-tolyl)-3-(trimethylsilyl)-1H-pyrazol-5-yl)urea]
[3]
  pIC50: 7.43
[1]
  pIC50: 8.41
[4]
  pIC50: 6.57
[5]
  pIC50: < 6.00
[2]
  pIC50: 5.67

## Cc1ccc(-n2nc([Si](C)(C)C)cc2NC(=O)Nc2ccc(Oc3ccnc(Nc4cccc(OCCN(C)C)c4)n3)c3ccccc23)cc1 [Example 11, 1-(4-((2-((3-(2-(Dimethylamino)ethoxy)phenyl)amino)pyrimidin-4-yl)oxy)naphthalen-1-yl)-3-(1-(p-tolyl)-3-(trimethylsilyl)-1H-pyrazol-5-yl)urea]
[1]
  pIC50: 8.85
[2]
  pIC50: 6.16

## COc1cc(Nc2nccc(Oc3ccc(NC(=O)Nc4cc([Si](C)(C)C)nn4-c4ccc(C)cc4)c4ccccc34)n2)cc(C(=O)NCCN2CCOCC2)c1 [Example 12, 3-Methoxy-N-(2-morpholinoethyl)-5-((4-((4-(3-(1-(p-tolyl)-3-(trimethylsilyl)-1H-pyrazol-5-yl)ureido)naphthalen-1-yl)oxy)pyrimidin-2-yl)amino)benzamide]
[3]
  pIC50: 8.00
[1]
  pIC50: 9.05
[4]
  pIC50: 7.77
[6]
  pIC50: 7.55
[5]
  pIC50: 6.85
[2]
  pIC50: 5.72

## Cc1ccc(-n2nc([Si](C)(C)C)cc2NC(=O)Nc2ccc(Oc3ccnc(Nc4ccccn4)n3)c3ccccc23)cc1 [Example 14, 1-(4-((2-(pyridin-2-ylamino)pyrimidin-4-yl)oxy)naphthalen-1-yl)-3-(1-(p-tolyl)-3-(trimethylsilyl)-1H-pyrazol-5-yl)urea]
[3]
  pIC50: 6.44
[1]
  pIC50: 7.44
[4]
  pIC50: < 6.00
[2]
  pIC50: < 5.00

## Cc1cc(Nc2nccc(Oc3ccc(NC(=O)Nc4cc([Si](C)(C)C)nn4-c4ccc(OCCN5CCOCC5)cc4)c4ccccc34)n2)cc2cn[nH]c12 [Example 15, 1-(4-((2-((7-Methyl-1H-indazol-5-yl)amino)pyrimidin-4-yl)oxy)naphthalen-1-yl)-3-(1-(4-(2-morpholinoethoxy)phenyl)-3-(trimethylsilyl)-1H-pyrazol-5-yl)urea]
[3]
  pIC50: 7.82
[1]
  pIC50: 8.66
[7]
  pIC50: 8.19
[4]
  pIC50: 7.62
[6]
  pIC50: 7.51
[5]
  pIC50: 6.60
[2]
  pIC50: 5.46

## CC[Si](C)(C)c1cc(NC(=O)Nc2ccc(Oc3ccnc(Nc4ccccc4)n3)c3ccccc23)n(-c2ccc(C)cc2)n1 [Example 16, 1-(3-(Ethyldimethylsilyl)-1-(p-tolyl)-1H-pyrazol-5-yl)-3-(4-((2-(phenylamino)pyrimidin-4-yl)oxy)naphthalen-1-yl)urea]
[3]
  pIC50: 6.94
[1]
  pIC50: 7.83
[4]
  pIC50: < 6.00
[2]
  pIC50: < 5.00

## Cc1ccc(-n2nc([Si](C)(C)C)cc2NC(=O)Nc2ccc(Oc3ccnc(Nc4cc(C)c5[nH]ncc5c4)n3)c(Cl)c2Cl)cc1 [Example 17, 1-(2,3-Dichloro-4-((2-((7-methyl-1H-indazol-5-yl)amino)pyrimidin-4-yl)oxy)phenyl)-3-(1-(p-tolyl)-3-(trimethylsilyl)-1H-pyrazol-5-yl)urea]
[1]
  pIC50: 8.10
[2]
  pIC50: < 5.00

## COc1cc(Nc2nccc(Oc3ccc(NC(=O)Nc4cc([Si](C)(C)C)nn4-c4ccc(C)cc4)c(Cl)c3Cl)n2)cc(OCCN2CCOCC2)c1 [Example 18, 1-(2,3-Dichloro-4-((2-((3-methoxy-5-(2-morpholinoethoxy)phenyl)amino)pyrimidin-4-yl)oxy)phenyl)-3-(1-(p-tolyl)-3-(trimethylsilyl)-1H-pyrazol-5-yl)urea]
[3]
  pIC50: 7.39
[1]
  pIC50: 8.57
[4]
  pIC50: 7.23
[5]
  pIC50: < 6.00
[2]
  pIC50: < 5.00

## COc1cc(Nc2nccc(Oc3ccc(NC(=O)Nc4cc([Si](C)(C)C)nn4-c4ccc(C)cc4)c4ccccc34)n2)cc(C(=O)NC[C@H](O)[C@@H](O)[C@H](O)[C@H](O)CO)c1 [Example 19, 3-Methoxy-N-((2S,3R,4R,5R)-2,3,4,5,6-pentahydroxyhexyl)-5-((4-((4-(3-(1-(p-tolyl)-3-(trimethylsilyl)-1H-pyrazol-5-yl)ureido)naphthalen-1-yl)oxy)pyrimidin-2-yl)amino)-benzamide]
[1]
  pIC50: 7.12
[2]
  pIC50: 5.17

## Cc1ccc(-n2nc([Si](C)(C)C)cc2NC(=O)Nc2ccc(Oc3ccnc(Nc4ccc5c(c4)CNC5=O)n3)c3ccccc23)cc1 [Example 20, 1-(4-((2-((1-Oxoisoindolin-5-yl)amino)pyrimidin-4-yl)oxy)naphthalen-1-yl)-3-(1-(p-tolyl)-3-(trimethylsilyl)-1H-pyrazol-5-yl)urea]
[1]
  pIC50: 8.74
[2]
  pIC50: 6.46
